Assay [1] has as its system MGMT negative human melanoma cells A2058. Description: Colony formation assay (cytotoxicity), A2058 melanoma cells. The assay is classed as cell-based. To be noted: 48-hour drug incubation, colonies counted 7-10 days later, compared at similar concentrations (FIG. 1). The procedure: (§1) The cytotoxicity of TMZ, POH-TMZ, and POH-TMZ-Linoleate were studied by colony formation assay of A2058 and A375 melanoma cells. A2058 and A375 cells were harvested and made single cell suspension in culture medium (DMEM with 10% FBS, 1% Penicillin/Streptomycin). 500 cells/well were seeded into 12-well plate (tissue culture treated, from Olympus Plastics) pre-warmed culture medium at 37° C. The cells were cultured overnight for attachment to the plate. Then the medium was removed and replaced with fresh medium containing varied concentrations of drugs (or no drugs as a control) for further 48-hour incubation. After 48 hours treatment, the medium was aspirated and replaced with normal culture medium. 7-10 days later, the culture medium was aspirated, and the colonies formed inside the wells were washed with cold PBS once. Then the colonies were stained with 0.1% methylene blue (in methanol) for 4-6 hours. The plates were then washed and the formed colonies counted (the colonies formed with 20 cells or more are countable).

In assay [2] the test system is MGMT positive human melanoma cells A375. Description: Colony formation assay (cytotoxicity), A375 melanoma cells. The assay is classed as cell-based. The settings on record: 48-hour drug incubation, colonies counted 7-10 days later, compared at similar concentrations (FIG. 2). The method, then: as §1
For assay [3], the system named is human melanoma tumor cells, A2058. Briefly: In vivo tumor growth inhibition, subcutaneous A2058 melanoma in nude mice, topical treatment, with CD31 histology. The procedure: Inhibition of tumor growth by POH-TMZ-linoleate was studied in nude mice. Nude mice were injected subcutaneously with 2×10^6 human melanoma tumor cells, A2058. The melanoma cells were allowed to form a palpable nodule in the mice. When the tumor size reached 1.0-1.5 cm in diameter in any dimension, a control mouse was treated topically with a vehicle (10% DMSO in 45% Glycerol+45% ethanol), and a test mouse was topically treated with TPL (50 mM TPL working solution was reconstituted in 45% Glycerol+45% Ethanol, and 100 μl (25 mg/kg) was applied topically on the skin which covers the whole tumor). The control mouse and the test mouse were both treated twice daily for 14 days.
After the 14 days of treatment the mice were sacrificed, the tumor removed, sectioned at 8 μm, fixed with acetone, and stored at −20° C. For histological analysis, the tissues were blocked with sea block and stained with the primary antibody Rat anti Mouse (1:50) overnight following which secondary biotinylated goat anti rat antibody (1:200) was added for 45 minutes, washed and avidin biotin complex, ABC elite was added for 30 minutes, washed and then stained with AEC and counter stained with hematoxylin. Such staining was used to evaluate the endothelial marker CD31 expression, which is representative of the amounts of blood vessels in the tumor. Staining images were captured at 40× under optical microscope. […] The histological analysis results were further quantified using ImageJ software by measuring the average area of staining in the tumors of the test mouse after TPL treatment and the control mouse, where the average area of staining was calculated based on the red precipitate of the stain in μm^2. From FIG. 5, it can be seen that the average area of staining is much smaller in the tumor of the test mouse than that in the control mouse.

Turning to `C=C(C)[C@@H]1CC=C(COC(=O)NC(=O)c2ncn3c(=O)n(C)nnc23)CC1` [POH-TMZ, reference compound], the “colonies count (effectiveness in killing the melanoma cells)” value in assay [1] and in assay [2] was “more effective than TMZ” in each case.
As for `C=C(C)[C@@H]1CC=C(COC(=O)N(C(=O)CCCCCCC/C=C\C/C=C\CCCCC)C(=O)c2ncn3c(=O)n(C)nnc23)CC1` [POH-TMZ-linoleate, (3-Methyl-4-oxo-3,4-dihydro-imidazo[5,1-d][1,2,3,5]tetrazine-8-carbonyl)-octadeca-9,12-dienoyl-carbamic acid 4-isopropenyl-cyclohex-1-enylmethyl ester], the “colonies count (effectiveness in killing the melanoma cells)” value in assay [1] and in assay [2] was “more effective in killing the melanoma cells than POH-TMZ” in each case. For the same compound, in assay [3] (after 14 days of topical treatment, FIGS. 4D-4F vs 4A-4C), the “tumor angiogenesis (CD31 staining, visual inspection) versus vehicle-treated mouse” value is listed as “much lower”. Besides, the “average area of CD31 staining in the tumor versus control mouse” value in assay [3] (after 14 days of topical treatment, ImageJ quantification, FIG. 5) is recorded as “much smaller”. Also, the “vascularization of the tumor compared with the tumor before the treatment” value in assay [3] (topical 25 mg/kg twice daily for 14 days, FIG. 3B vs FIG. 3A) is “reduced vascularization”. In assay [3] (topical 50 mM, 100 μl (25 mg/kg) twice daily for 14 days, FIG. 3B), the “appearance of the tumor surface after treatment” value is “developed a hard surface”.

(Values after patent publication US11479554B2, “Pharmaceutical compositions comprising perillyl alcohol derivatives” (NeOnc Technologies, Inc., priority 2015, dated 2022).)
